# Source: US9750755B2, “Antimicrobial compositions and related methods” (DeLaval Holding AB, priority 2006, dated 2017)
# Experiments:
# [1] = test system: E. coli (ATCC 11229); experiment: Modified EN 1656 dilution neutralization test, milk as interferent, 30 seconds contact; format: cell-based, Escherichia coli; settings: 10% lactic acid used alone, typical
# Description: (§1) The test bacteria were Eschericia coli (ATCC 11229), which were originally isolated from mastitis infection and obtained on commercial order from Mastitlaboratoriet, SVA, and Staphococcus aureus (ATCC6538 from Microbiologics, St. Cloud, Minn.), which was also isolated from mastitis infection.
# (§2) According to a modified EN1656 dilution neutralization method, freeze dried E. coli (ATCC 11229) and S. aureus (ATCC 6538) were hydrated, grown for four days and transferred. Then bacteria were diluted to form a suspension to have an initial concentration of about 10^8 cfu/mL.
# (§3) Freeze-dried pellets of E. coli (ATCC 11229) and S. aureus (ATCC 6538) were hydrated, placed in test tubes containing nutrient agar and incubated at 37° C. for 24 hours. Sterile buffer (0.25 M phosphate adjusted to pH 7.2) was used to dilute and transfer the bacteria to additional nutrient agar tubes, which were incubated for another 24 hours. S. aureus was then diluted with buffer and transferred to nutrient agar in French bottles, and E. coli was diluted and transferred to fresh nutrient agar tubes. Both types of bacteria were incubated at 37° C. for 72 hours. E. coli was then diluted and transferred to nutrient agar in French bottles. […]
# (§4) The plates with bacterial populations between 25 and 250 were counted and results were expressed as logarithmic reductions according to EN 1656 test method.
# [2] = test system: S. aureus (ATCC 6538); experiment: as above; format: cell-based, Staphylococcus aureus; settings: 10% lactic acid used alone, typical
# Description: as §1, §2, §3, §4
compound,measurement,setting,value
"CC(O)C(=O)O (stereo not drawn) [lactic acid, L(+)-2-Hydroxypropanoic acid]",log reduction in E. coli concentration,[1],five log reduction
same,log reduction in S. aureus concentration,[2],less than a three log reduction
